Results from ChEMBL document CHEMBL1201862, “PubChem BioAssay data set” (2004).
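The compound was tested at five concentrations on cells cultured in 96-well plates, with a 48-hour exposure period. GI50 is the concentration that inhibits growth by half.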 Active and inactive are the calls of the source. No stated cut-off is given here; in the data, active = GI50 up to about 1.1 µM and inactive = higher.

What was measured:
Assay in all cases: NCI-60 cell line screen, 48 h
[1] = test system: UACC-257
[2] = test system: HCT-15
[3] = test system: SF-295
[4] = test system: TK-10
[5] = test system: HL-60
[6] = test system: SF-268
[7] = test system: UO-31
[8] = test system: COLO 205
[9] = test system: SF-539
[10] = test system: U-251
[11] = test system: RXF 393
[12] = test system: LOX IMVI
[13] = test system: Malme-3M
[14] = test system: SR
[15] = test system: OVCAR-4
[16] = test system: CAKI-1

| SMILES | GI50 [1] | GI50 [2] [µM] | GI50 [3] | GI50 [4] | GI50 [5] | GI50 [6] | GI50 [7] | GI50 [8] | GI50 [9] | GI50 [10] | GI50 [11] | GI50 [12] | GI50 [13] | GI50 [14] | GI50 [15] | GI50 [16] |
| --- | --- | --- | --- | --- | --- | --- | --- | --- | --- | --- | --- | --- | --- | --- | --- | --- |
| O=C1CCC2(CCC(=O)NC2=O)C(=O)N1 | > 100 µM (inactive) | > 100 | > 100 µM (inactive) | > 100 µM (inactive) | > 100 µM (inactive) | > 100 µM (inactive) | > 100 µM (inactive) | > 100 µM (inactive) | > 100 µM (inactive) | > 100 µM (inactive) | > 100 µM (inactive) | > 100 µM (inactive) | > 100 µM (inactive) | > 100 µM (inactive) | – | – |
| O=C(NO)C(=O)Nc1cc(Cl)ccc1Cl | > 100 µM (inactive) | > 100 | > 100 µM (inactive) | > 100 µM (inactive) | > 100 µM (inactive) | > 100 µM (inactive) | 22 µM (inactive) | > 100 µM (inactive) | > 100 µM (inactive) | > 100 µM (inactive) | > 100 µM (inactive) | 16.8 µM (inactive) | > 100 µM (inactive) | 93.5 µM (inactive) | > 100 µM (inactive) | 23.2 µM (inactive) |
| Cc1ccc(C2(C)NC(=S)N(NC(N)=S)C2=S)cc1 (stereo not drawn) | > 100 µM (inactive) | > 100 | > 100 µM (inactive) | > 100 µM (inactive) | > 100 µM (inactive) | > 100 µM (inactive) | > 100 µM (inactive) | > 100 µM (inactive) | > 100 µM (inactive) | > 100 µM (inactive) | 80.2 µM (inactive) | 47 µM (inactive) | > 100 µM (inactive) | 51.6 µM (inactive) | > 100 µM (inactive) | – |
| CCOP(=O)(C/C(=N/NC(C)(C)C)C(=O)Nc1nc2ccc(C)cc2s1)OCC | > 100 µM (inactive) | > 100 | > 100 µM (inactive) | > 100 µM (inactive) | > 100 µM (inactive) | > 100 µM (inactive) | > 100 µM (inactive) | > 100 µM (inactive) | > 100 µM (inactive) | > 100 µM (inactive) | > 100 µM (inactive) | > 100 µM (inactive) | > 100 µM (inactive) | > 100 µM (inactive) | > 100 µM (inactive) | > 100 µM (inactive) |
| Cc1ccc(SSCCCS(=O)O)cc1 | 50.2 µM (inactive) | 29.2 | 32.8 µM (inactive) | 39.5 µM (inactive) | 0.435 µM (active) | 12.2 µM (inactive) | 23.5 µM (inactive) | 24 µM (inactive) | 20.7 µM (inactive) | 17.4 µM (inactive) | 18.8 µM (inactive) | 11.4 µM (inactive) | > 100 µM (inactive) | – | 43.8 µM (inactive) | 38.7 µM (inactive) |
| N#CCCN(c1ccc(-c2nnc(NC(=O)CNNC(=O)CC(=O)Nc3ccccc3)s2)cc1)S(=O)(=O)c1ccccc1 | > 100 µM (inactive) | > 100 | > 100 µM (inactive) | > 100 µM (inactive) | 39.4 µM (inactive) | > 100 µM (inactive) | 46.3 µM (inactive) | > 100 µM (inactive) | > 100 µM (inactive) | > 100 µM (inactive) | – | > 100 µM (inactive) | > 100 µM (inactive) | – | 53.2 µM (inactive) | 78 µM (inactive) |
| COc1cc([C@@H]2c3cc4c(cc3[C@@H](OC(=O)c3ccc(N)cc3)C3COC(=O)[C@@H]32)OCO4)cc(OC)c1O (stereo partly drawn) | 9.14 µM (inactive) | 12.8 | 4.25 µM (inactive) | 17.6 µM (inactive) | 3.1 µM (inactive) | 9.59 µM (inactive) | 10.2 µM (inactive) | 5.98 µM (inactive) | 2.54 µM (inactive) | 4.45 µM (inactive) | 2.92 µM (inactive) | 10.6 µM (inactive) | 12.3 µM (inactive) | – | 45.4 µM (inactive) | 8.47 µM (inactive) |
| C/C(CC(=O)Nc1ccc([N+](=O)[O-])cc1)=N/N=C(N)N | > 100 µM (inactive) | – | > 100 µM (inactive) | > 100 µM (inactive) | > 100 µM (inactive) | > 100 µM (inactive) | > 100 µM (inactive) | > 100 µM (inactive) | > 100 µM (inactive) | > 100 µM (inactive) | > 100 µM (inactive) | > 100 µM (inactive) | > 100 µM (inactive) | – | – | – |
| O=[N+]([O-])c1ccc(C(O)/C(=N/O)c2nc3ccc(Cl)cc3nc2O)cc1 (stereo not drawn) | > 100 µM (inactive) | > 100 | > 100 µM (inactive) | > 100 µM (inactive) | > 100 µM (inactive) | > 100 µM (inactive) | > 100 µM (inactive) | > 100 µM (inactive) | > 100 µM (inactive) | > 100 µM (inactive) | > 100 µM (inactive) | > 100 µM (inactive) | > 100 µM (inactive) | > 100 µM (inactive) | > 100 µM (inactive) | > 100 µM (inactive) |
